Reference: PubChem BioAssay (NCI)
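Growth conditions: 96-well plates. Treatment: test compound, 48 hours, 5 concentrations. Analysis: linear interpolation between bracketing concentrations; unreached endpoints set to highest concentration. The concentration for 50% growth inhibition is given as GI50. Definition used: TGI = concentration required for complete inhibition of growth.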

Experiments:
Experiment in all cases: NCI anticancer screen, dose series, 48 h
A498 renal = test system: A498 renal
CAKI-1 renal = test system: CAKI-1 renal
EKVX NSCLC = test system: EKVX NSCLC
HCT-116 colon = test system: HCT-116 colon
HCT-15 colon = test system: HCT-15 colon
HOP-92 NSCLC = test system: HOP-92 NSCLC
HT29 colon = test system: HT29 colon
NCI-H522 lung = test system: NCI-H522 lung
SF-539 CNS = test system: SF-539 CNS
UACC-62 melanoma = test system: UACC-62 melanoma

Compound	TGI (A498 renal) [µM]	TGI (CAKI-1 renal) [µM]	TGI (EKVX NSCLC) [µM]	TGI (HCT-116 colon) [µM]	TGI (HCT-15 colon) [µM]	TGI (HOP-92 NSCLC) [µM]	TGI (HT29 colon) [µM]	TGI (NCI-H522 lung) [µM]	TGI (SF-539 CNS) [µM]	TGI (UACC-62 melanoma) [µM]	GI50 (A498 renal) [µM]	GI50 (CAKI-1 renal) [nM]	GI50 (EKVX NSCLC) [µM]	GI50 (HCT-116 colon) [nM]	GI50 (HCT-15 colon) [nM]	GI50 (HOP-92 NSCLC) [µM]	GI50 (HT29 colon) [µM]	GI50 (NCI-H522 lung) [µM]	GI50 (SF-539 CNS) [µM]
CCCCCCCCC[C@@H]1C[C@H](O)[C@H](Cc2ccccc2)N1C(=O)OC(C)(C)C	33.7	38.2	33.5	31.9	33.9	28.9	31.5	30	37.2	33.3	–	–	–	–	–	–	–	–	–
O=c1n(CC2CO2)c2ccccc2n1CC1CS1 (configuration not stated)	–	> 100	> 100	> 100	> 100	> 100	–	> 100	> 100	> 100	–	–	–	–	–	–	–	–	–
O=[N+]([O-])c1cnccc1-n1nnc2ccccc21	92.1	–	90.6	> 100	66.1	> 71.1	> 100	38.5	45.8	33.4	–	–	–	–	–	–	–	–	–
c1ccc2c(CCNC3=NCCO3)cccc2c1	> 10	> 10	> 10	> 10	> 10	–	> 10	> 10	> 10	> 10	–	–	–	–	–	–	–	–	–
O=C(O)c1cc2sc(C(=O)O)cc2s1	> 100	> 100	–	> 100	> 100	> 100	> 100	> 100	> 100	> 100	–	–	–	–	–	–	–	–	–
O=[N+]([O-])c1ccc(N/N=C\c2ccc(O)cc2O)nc1	> 100	9.8	> 100	> 100	> 100	> 100	> 100	> 100	> 100	–	> 100	1680	3.49	2110	828	5.54	5.32	10.8	3.07
Nc1[nH]nc2c1Cc1c(n(Cc3ccc(Cl)cc3)c3ccccc13)C(=O)N2	29.7	23.5	59.2	21.8	16.8	31.5	34.9	–	29.9	> 100	–	–	–	–	–	–	–	–	–
CC(=O)Nc1ccc(C(=O)NN2C(=O)C(Cl)C2/C=C/c2ccccc2)cc1 (configuration not stated)	–	–	–	> 100	–	> 100	> 100	> 100	> 100	> 100	–	–	–	–	–	–	–	–	–
CSc1nc(NC2OC(CO)C(O)C(O)C2O)c(N)c(=O)[nH]1 (configuration not stated)	> 100	–	> 100	> 100	> 100	> 100	> 100	> 100	> 100	> 100	–	–	–	–	–	–	–	–	–
COC(=O)C(Cc1cc(OC)c(OC)c(OC)c1)(NC(=O)c1ccccc1)P(=O)(OC)OC (configuration not stated)	> 100	> 100	> 100	> 100	> 100	> 100	> 100	> 100	> 100	> 100	–	–	–	–	–	–	–	–	–
O=C1CN2CCN(CC2)CC(=O)Nc2ccc(cc2)S(=O)(=O)c2ccc(cc2)NC(=O)CN2CCN(CC2)CC(=O)Nc2ccc(cc2)S(=O)(=O)c2ccc(cc2)N1	> 100	> 100	> 100	71.9	30.7	> 100	51	22.1	49.2	> 67.9	–	–	–	–	–	–	–	–	–
